Biological target: RBD of spike protein binding with ACE2 protein (Severe acute respiratory syndrome coronavirus 2, UniProt P0DTC2)

With Bovine serum albumin [BSA] the “Competitive inhibition of ACE2 binding with RBD of spike” value was “non-competitive binding signal”.

— patent publication US20240409669A1, “Neutralizing Trivalent Protein-DNA Molecules (TRI-PDBODY) for SARS-COV-2 Infection Treatment” (priority 2021, published 2024)
